Data published in patent publication US10047073B2, “Histone deacetylase inhibitors and compositions and methods of use thereof” (CHDI Foundation, Inc., priority 2015, dated 2018).
Where a name gives a salt, the structure may show the parent alone.

Key:
[1] = target: human catalytic domain HDAC4 protein (Homo sapiens (Human), UniProt P56524); assay: Inhibition of HDAC4 catalytic domain, Boc-Lys(TFA)-AMC fluorogenic substrate; settings: read-out: HDAC4 Biochemical IC50
Description: Example 13: Analysis of Inhibition of HDAC4 with Class IIa Histone Deacetylase (HDAC) Inhibitors
The potency of Class IIa Histone Deacetylase (HDAC) inhibitors was quantified by measuring the Histone Deacetylase 4 (HDAC4) catalytic domain enzymatic activity using the fluorogenic substrate, Boc-Lys(TFA)-AMC. The substrate was deacetylated to Boc-Lys-AMC by HDAC4. […] The fluorescence of the sample was directly related to the histone deacetylase activity in the sample.
(§1) Serial dilutions of the HDAC inhibitors and control reference compound (1-(5-(3-((4-(1,3,4-oxadiazol-2-yl)phenoxy)methyl)-1,2,4-oxadiazol-5-yl)thiophen-2-yl)-2,2,2-trifluoroethanone) were made by first resuspending the lyophilized compound to a final concentration of 10 mM in 100% dimethyl sulfoxide (DMSO). Stocks of 60 μL aliquots of the 10 mM compound in DMSO were prepared and stored at −20° C. From one stock aliquot of each tested compound and the reference compound, a 16-point serial dilution was prepared according to Table 1 using a 125 μL 16-channel Matrix multi-channel pipette (Matrix Technologies Ltd).
2 μL (200×) of each diluted solution and each control (full activity: 100% DMSO alone or full inhibition 1 mM) was stamped into V-bottomed polypropylene 384-well compound plates using either the Bravo (384-well head from Agilent) or 12.5 μL 16-channel Matrix multi-channel pipette (Matrix Technologies Ltd). Each well with the 200× compound solution was diluted 1:20 by the addition of 38 μL assay buffer+DMSO (10.5% DMSO, 45 mM Tris-HCl, 123 mM NaCl, 2.4 mM KCl, and 0.9 mM MgCl2 at pH 8.0 and equilibrated to r.t.).
The HDAC4 catalytic domain enzyme was human catalytic domain HDAC4 protein (amino acids 648-1032) with a C-terminal 6× histidine tag, produced by BioFocus. A working solution of enzyme was prepared from a 500 μg/mL stock aliquot of HDAC4 catalytic domain (thawed on ice) diluted to 0.2 μg/mL with assay buffer (50 mM Tris-HCl, 137 mM NaCl, 2.7 mM KCl, and 1 mM MgCl2 at pH 8 and equilibrated to r.t.) just prior to the addition of the enzyme to the assay.
5× (50 μM) substrate was prepared just prior to the addition to the assay. A 1 mM substrate stock was made by diluting a 100 mM Boc-Lys(TFA)-AMC in DMSO solution 1:100 by adding it drop-wise to assay buffer (equilibrated to r.t.) while vortexing at slow speed to prevent precipitation. The 5× substrate was prepared by diluting the 1 mM substrate solution 1:20 by adding it drop-wise to assay buffer (equilibrated to r.t.) while vortexing at slow speed to prevent precipitation.
3× (30 μM) Developer/Stop Solution was prepared just prior to addition to the plate by diluting a stock solution of 10 mM reference compound 1:333 in 25 mg/mL trypsin (PAA Laboratories Ltd.) equilibrated to r.t.
5 μL of each solution of 1:20 diluted compound from above was transferred to a clear bottomed, black, 384-well assay plate using the Bravo or the Janus (384-well MDT head from Perkin Elmer). Using a 16-channel Matrix multi-channel pipette, 35 μL of the working solution of HDAC4 catalytic domain enzyme (0.2 μg/mL in assay buffer) was transferred to the assay plate. The assay was then started by adding 10 μL of 5× (50 μM) substrate to the assay plates using either the Bravo, Janus or 16-channel Matrix multi-channel pipette. The assay plate was then shaken for two minutes on an orbital shaker at 900 rpm (rotations per minute). Next the plate was incubated for 15 minutes at 37° C. The reaction was stopped by adding 25 μL of 3× (30 μM) developer/stop solution to the assay plates using either the Bravo, Janus or a 16-channel Matrix multi-channel pipette. Assay plates were then shaken for 5 minutes on an orbital shaker at 1200 rpm. Next, the assay plates were incubated at 37° C. for 1 hour in a tissue culture incubator. Finally, the fluorescence was measured (Excitation: 355 nm, Emission: 460 nm) using PerkinElmer EnVision in top read mode.

[2] = system: cellular Class I HDAC activity in Jurkat E6-1 cells; assay: Inhibition of cellular Class I HDAC activity, Cell (Lys-Ac) substrate; format: cell-based; settings: Boc-Lys(Ac)-AMC
Description: Example 18: Analysis of Inhibition of Cellular Class I HDAC Activity with Class IIa Histone Deacetylase (HDAC) Inhibitors: Cell (Lys-Ac) Substrate
The Class I HDAC activity of Class IIa Histone Deacetylase (HDAC) inhibitors was quantified by measuring the cellular histone deacetylase enzymatic activity using the fluorogenic substrate, Boc-Lys(Ac)-AMC. This was performed according to the procedure in Example 17, using Boc-Lys(Ac)-AMC substrate in place of Boc-Lys(TFA)-AMC.

[3] = system: cellular Class IIa HDAC activity in Jurkat E6-1 cells; assay: Inhibition of cellular Class IIa HDAC activity, Cell (Lys-TFA) substrate; format: cell-based; settings: Boc-Lys(TFA)-AMC
Description: Example 17: Analysis of Inhibition of Cellular Class IIa HDAC Activity with Class IIa Histone Deacetylase (HDAC) Inhibitors: Cell (Lys-TFA) Substrate
The potency of Class IIa Histone Deacetylase (HDAC) inhibitors was quantified by measuring the cellular histone deacetylase enzymatic activity using the fluorogenic substrate, Boc-Lys(TFA)-AMC. After penetration in Jurkat E6-1 cells, the substrate was deacetylated to Boc-Lys-AMC. After cell lysis and cleavage by trypsin, the fluorophore AMC was released from the deacetylated substrate only. The fluorescence of the sample was directly related to the histone deacetylase activity in the sample.
Jurkat E6.1 cells were cultured according to standard cell culture protocols in Jurkat E6.1 Growth Media (RPMI without phenol red, 10% FBS, 10 mM HEPES, and 1 mM Sodium Pyruvate). Jurkat E6.1 cells were counted using a Coulter Counter and resuspended in Jurkat E6.1 growth media at a concentration of 75,000 cells/35 μL. 35 μL or 75,000 cells was seeded into Greiner microtitre assay plates. The plates were then incubated at 37° C. and 5% CO2 while other assay components were being prepared.
as §1, with “DMSO.” for “dimethyl sulfoxide (DMSO).”, “[…]” for “60 μL”, “pipette.” for “pipette (Matrix Technologies Ltd).”
2 μL (200×) of each diluted solution and each control (full activity: 100% DMSO alone or full inhibition 1 mM) was stamped into V-bottom polypropylene 384-well compound plates using either the Bravo, Janus, or 12.5 μL 16-channel Matrix multi-channel pipette. Each well with the 200× compound solution was diluted 1:20 by the addition of 38 μL Jurkat assay buffer+DMSO (9.5% DMSO, RPMI without phenol red, 0.09% FBS, 9 mM Hepes, and 0.9 mM Sodium Pyruvate equilibrated to r.t.)
5× (500 μM) substrate was prepared just prior to the addition to the assay. The 5× substrate was prepared by diluting a 100 mM Boc-Lys(TFA)-AMC in DMSO solution 1:200 by adding it drop-wise to Jurkat assay medium (RPMI without phenol red, 0.1% FBS, 10 mM Hepes, and 1 mM Sodium Pyruvate equilibrated to 37° C.) while vortexing at slow speed to prevent precipitation.
10 mL of 3× lysis buffer was prepared with 8.8 mL of 3× stock lysis buffer (50 mM Tris-HCl, pH 8.0, 137 mM NaCl, 2.7 mM KCl, 1 mM MgCl2, 1% Nonidet P40 Substitute equilibrated to r.t.) and 1.2 mL of 3 mg/mL Trypsin equilibrated to r.t.
5 μL of each solution of 1:20 diluted compound from above was transferred to the Greiner microtitre assay plates with 75,000 cells/well using the Bravo. Cells were then incubated for 2 hours at 37° C. and 5% CO2. The assay was then started by adding 10 μL of 5× (500 μM) substrate to the assay plate using either the Bravo or 16-channel Matrix multi-channel pipette. The cells were then incubated for 3 hours at 37° C. and 5% CO2. Next, 25 μL of 3× lysis buffer was added to each well using either the 125 μL 16 channel pipette or the Bravo. The assay plate was then incubated overnight (15-16 hours) at 37° C. and 5% CO2. The following day, the plates were shaken on an orbital shaker for 1 minute at 900 rpm. Finally the top read fluorescence (Excitation: 355 nm, Emission: 460 nm) was measured using PerkinElmer EnVision.

[4] = Homo sapiens, Jurkat E6.1, Jurkat E6.1 cells

Sequence of human catalytic domain HDAC4 protein (P56524 648-1032): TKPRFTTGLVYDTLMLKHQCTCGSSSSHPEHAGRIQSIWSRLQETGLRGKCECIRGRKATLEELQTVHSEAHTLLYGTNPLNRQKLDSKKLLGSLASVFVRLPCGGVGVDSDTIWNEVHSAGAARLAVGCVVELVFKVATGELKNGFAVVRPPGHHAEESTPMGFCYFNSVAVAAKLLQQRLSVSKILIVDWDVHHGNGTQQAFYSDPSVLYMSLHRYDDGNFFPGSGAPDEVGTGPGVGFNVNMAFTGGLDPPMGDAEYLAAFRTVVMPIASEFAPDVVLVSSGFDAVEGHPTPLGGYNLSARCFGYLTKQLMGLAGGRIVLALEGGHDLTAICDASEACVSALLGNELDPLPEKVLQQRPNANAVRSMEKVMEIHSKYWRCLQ

| Structure (SMILES) | IC50 [1] | IC50 ([2]; Jurkat E6.1 cells) | IC50 [3, 4] | IC50 ([3]; Jurkat E6.1 cells) | IC50 [2, 4] |
| --- | --- | --- | --- | --- | --- |
| C[C@H]1CCCN1CC1CC1NC(=O)c1ccc(-c2noc(C(F)(F)F)n2)cc1 (single isomer, unassigned) [Example 11] | 230 nM |  | 1000 nM |  | 36600 nM |
| O=C(NC1(CN2CCC3(CC2)COC3)CC1)c1ccc(-c2noc(C(F)(F)F)n2)cc1 [Example 2, N-(1-(2-Oxa-7-azaspiro[3.5]nonan-7-ylmethyl)cyclopropyl)-4-(5-(trifluoromethyl)-1,2,4-oxadiazol-3-yl)benzamide] | 110 nM |  | 240 nM |  | 4900 nM |
| O=C(NC1(CN2CCCC23COC3)CC1)c1ccc(-c2noc(C(F)(F)F)n2)cc1 [Example 3, N-(1-(2-Oxa-5-azaspiro[3.4]octan-5-ylmethyl)cyclopropyl)-4-(5-(trifluoromethyl)-1,2,4-oxadiazol-3-yl)benzamide] | 750 nM |  | 390 nM |  | 8600 nM |
| O=C(NC1(CN2CC3CCC(C3)C2)CC1)c1ccc(-c2noc(C(F)(F)F)n2)cc1 [Example 4, N-(1-(-3-Azabicyclo[3.2.1]octan-3-ylmethyl)cyclopropyl)-4-(5-(trifluoromethyl)-1,2,4-oxadiazol-3-yl)benzamide] |  |  | 690 nM |  | 7800 nM |
| O=C(NC1(CN2CCC3(CC2)CC3)CC1)c1ccc(-c2noc(C(F)(F)F)n2)cc1 [Example 5, N-(1-(6-Azaspiro[2.5]octan-6-ylmethyl)cyclopropyl)-4-(5-(trifluoromethyl)-1,2,4-oxadiazol-3-yl)benzamide] | 89 nM |  | 370 nM |  | 2000 nM |
| O=C(NC1(CN2CCCC23COC3)CCC1)c1ccc(-c2noc(C(F)(F)F)n2)cc1 [Example 10, N-(1-(2-Oxa-5-azaspiro[3.4]octan-5-ylmethyl)cyclobutyl)-4-(5-(trifluoromethyl)-1,2,4-oxadiazol-3-yl)benzamide] | 750 nM |  | 390 nM |  | 8600 nM |
| CC1(C)CCCN(CC2(NC(=O)c3ccc(-c4noc(C(F)(F)F)n4)c(F)c3)CC2)C1 [Example 12, N-(1-((3,3-Dimethylpiperidin-1-yl)methyl)cyclopropyl)-3-fluoro-4-(5-(trifluoromethyl)-1,2,4-oxadiazol-3-yl)benzamide] | 76 nM |  | 312 nM |  | 15100 nM |

Continued by falling IC50 [1], values first:

| IC50 [1] | IC50 ([2]; Jurkat E6.1 cells) | IC50 [3, 4] | IC50 ([3]; Jurkat E6.1 cells) | IC50 [2, 4] | Structure (SMILES) |
| --- | --- | --- | --- | --- | --- |
| 58 nM |  | 100 nM |  | 700 nM | O=C(NC1(CN2CCC3(CC3)C2)CCC1)c1ccc(-c2noc(C(F)(F)F)n2)cc1 [Example 9, N-(1-(5-Azaspiro[2.4]heptan-5-ylmethyl)cyclobutyl)-4-(5-(trifluoromethyl)-1,2,4-oxadiazol-3-yl)benzamide] |
| 50 nM |  | 140 nM |  | 2600 nM | O=C(NC1(CN2CCCC3(CC3)C2)CC1)c1ccc(-c2noc(C(F)(F)F)n2)cc1 [Example 1, N-(1-(5-Azaspiro[2.5]octan-5-ylmethyl)cyclopropyl)-4-(5-(trifluoromethyl)-1,2,4-oxadiazol-3-yl)benzamide] |
| 30 nM |  | 45 nM |  | 2500 nM | CC1(C)CCCN(CC2(NC(=O)c3ccc(-c4noc(C(F)(F)F)n4)cc3)CC2)C1 [Example 8, N-(1-((3,3-Dimethylpiperidin-1-yl)methyl)cyclopropyl)-4-(5-(trifluoromethyl)-1,2,4-oxadiazol-3-yl)benzamide formate] |
| 8 nM | 1500 nM | 28 nM |  |  | O=C(NC1(CN2CCCC2C2CC2)CC1)c1ccc(-c2noc(C(F)(F)F)n2)cc1 (single isomer, unassigned) [Example 6, E1-(abs)-N-(1-((2-Cyclopropylpyrrolidin-1-yl)methyl)cyclopropyl)-4-(5-(trifluoromethyl)-1,2,4-oxadiazol-3-yl)benzamide] |
| 3 nM | 540 nM |  | 14 nM |  | O=C(NC1(CN2CCCC2C2CC2)CC1)c1ccc(-c2noc(C(F)(F)F)n2)cc1 (single isomer, unassigned) [Example 7, E2-(abs)-N-(1-((2-Cyclopropylpyrrolidin-1-yl)methyl)cyclopropyl)-4-(5-(trifluoromethyl)-1,2,4-oxadiazol-3-yl)benzamide] |
